For test [1], the system named is CD8 T cells from spleens of T. gondii-infected B10.D2 mice. The experiment in a line: Ex vivo IFN-γ intracellular staining of splenocytes restimulated in vitro with peptide. Type of test: cell-based. The settings on record: splenocytes of B10.D2 mice 3 weeks post-infection with CEP+GRA6II; one representative mouse out of 3. As for the experimental part:
(§1) Mice were sacrificed 3 to 4 weeks after infection. Spleens were dissociated into single-cell suspensions in complete RPMI (Invitrogen) supplemented with 10% (vol/vol) FCS (Hyclone). Samples were depleted of erythrocytes with ACK lysis buffer (100 µM EDTA, 160 mM NH4Cl and 10 mM NaHCO3). Leukocytes from the brain were prepared as in [17]. In brief, brains were minced and digested for 1 h at 37°C with 1 mg/ml collagenase (Sigma) and 100 µg/ml DNAseI (Roche) in complete RPMI. Brain suspensions were filtered through 70-µm cell strainers and centrifuged for 10 min at 200 g. Cells were resuspended in 60% (vol/vol) Percoll (GE Healthcare), overlaid on 30% (vol/vol) Percoll and centrifuged 20 min at 1,000 g. Infiltrating mononuclear cells were collected from the gradient interface and the remaining erythrocytes were lyzed with ACK lysis buffer.
(§2) For other stainings, surfaces were labeled according to standard procedures with flow cytometry buffer (3% (vol/vol) FCS and 1 mM EDTA in PBS). Intracellular IFN-γ was detected with the Cytofix/Cytoperm kit (BD Pharmingen). DimerX H-2L^d:Ig (fusion protein of H-2L^d and immunoglobulin; BD Biosciences) was used according to the manufacturer's instructions and as described in [17]. All flow cytometry data were acquired on an XL Analyzer (Coulter) or a LSRII (Becton Dickinson) and were analyzed with FlowJo software (Tree Star).

In test [2] the test system is naïve T. gondii-specific CD8α+ T cells in naive B10.D2 mice. The test is described as follows: Naïve T cell enumeration by tetramer-based enrichment and flow cytometry. On the set-up: species or system mouse. As for the experimental part:
We next assessed whether abundance of peptide-specific T cells in the repertoire of naïve mice may control immunodominance. We employed a tetramer-based enrichment procedure, [24] to enumerate naïve T cells isolated from spleen and lymph nodes of uninfected mice and specific for each of the 3 epitopes. Numbers of T cell precursors were analyzed by flow cytometry after gating on a population of live dump^− (dump = B220, F4/80, MHC II) CD3^+ CD8α^+ cells (Fig. S4 in Text S1). […] Thus the immunodominance of HF10 cannot be explained by a high starting precursor frequency of specific T cells.
Spleen and major lymph nodes from individual naïve B10.D2 mice were harvested. Single cell suspension was stained with PE-labeled (Prozyme) SM9:L^d, IF9:L^d or HF10:L^d tetramers (NIH tetramer facility). Tetramer enrichment was performed on each sample with anti-PE magnetic beads (Miltenyi Biotec) and each sample was stained with antibodies (BD Biosciences) for flow cytometry analysis. Total numbers of CD8α^+tetramer^+ T cells per mouse were determined as before, [24].
A general note: In flow cytometry, cells or beads pass a laser one at a time.

The subject of test [3] is T. gondii-specific CD8 T cells of infected B10.D2 mice. The experiment in a line: Ex vivo staining of peptide-specific CD8 T cells with peptide-loaded L^d DimerX. The settings on record: B10.D2 mice 4 weeks post-infection; HF10 value in CEP+GRA6II-infected mice; mean +/- s.d.; 3 independent experiments pooled; SD. Type of test: cell-based, mouse. How it is done:
as §1, §2

A further test concerns type II parasite. The settings on record: H2^d mice immunized with HF10-loaded bone marrow-derived dendritic cells; cited from earlier work.
The target in another test is T1, L^d MHC I molecule (Mus musculus, UniProt P01897).
T1 construct: expressed in transfected cells; host or cells: RMA-S.L^d cells (TAP-deficient), gift from T. Hansen
T1 sequence (P01897 25-362): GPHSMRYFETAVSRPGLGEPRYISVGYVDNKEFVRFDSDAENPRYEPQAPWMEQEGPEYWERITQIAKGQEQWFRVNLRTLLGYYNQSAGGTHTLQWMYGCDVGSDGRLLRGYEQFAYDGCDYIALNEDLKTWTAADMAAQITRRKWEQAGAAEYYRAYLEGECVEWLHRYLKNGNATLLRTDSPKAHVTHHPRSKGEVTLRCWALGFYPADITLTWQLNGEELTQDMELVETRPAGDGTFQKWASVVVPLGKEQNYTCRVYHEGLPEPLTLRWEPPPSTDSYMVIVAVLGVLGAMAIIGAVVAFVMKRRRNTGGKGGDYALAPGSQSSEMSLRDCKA
T1 sequence (P01887 21-119 partner): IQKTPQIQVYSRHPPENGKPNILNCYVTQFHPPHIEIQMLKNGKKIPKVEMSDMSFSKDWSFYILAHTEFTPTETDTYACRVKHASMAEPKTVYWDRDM
The test is described as follows: MHC I stabilization assay on TAP-deficient RMA-S.L^d cells. The settings on record: flow cytometry MFI. Type of test: binding. The text has this:
We took advantage of the genetic diversity among three common T. gondii strains (type I, II and III). While the GRA4-derived SM9 and ROP7-derived IF9 peptides are conserved (data not shown and ToxoDB.org), the GRA6-derived HF10 peptide is polymorphic between type II and type I/III strains. Within the last 10 residues of GRA6, four non-synonymous single-nucleotide polymorphisms differentiate the type II sequence (HF10: HPGSVNEFDF) from the type I/III sequence (HY10: HPERVNVFDY) (Fig. 1A and Fig. S1 in Text S1). We noted that instead of a phenylalanine (F), the C-terminal residue in GRA6III is a tyrosine (Y), a residue not expected to be an appropriate anchor residue for L^d binding. To evaluate the ability of HF10 and HY10 to bind to L^d, we used an MHC I stabilization assay. TAP-deficient RMA-S cells display empty, unstable MHC I molecules and addition of exogenous peptides that can bind to MHC I can stabilize their expression on the cell surface, as read out by flow cytometry.
RMA-S.L^d cells were a gift from T. Hansen (St-Louis, MO, USA). RMA-S.L^d cells were incubated at 37°C, 5% CO2 for 8 h to saturate the culture medium with CO2. The flask was sealed with parafilm and incubated at RT overnight. The next day, cells were washed with PBS and plated at 3×10^5 cells/well in a 96-W plate. Peptide was added to the cells in serial dilutions. The plate was incubated for 1 h at RT and 3 h at 37°C. Cells were stained with the 30-5-7 antibody (specific for conformed, peptide-bound L^d) and a phycoerythrine (PE)-coupled goat anti-mouse secondary antibody and analyzed by flow cytometry.

Setting [4] is: uninfected B10.D2 mice, tetramer enrichment.
The mark [5] stands for this setting: MHC I stabilization on RMA-S.L^d cells, representative of 3 assays.

Where “and” joins values, the source holds several entries; their conditions need not be identical. Identical values can stand only once.

Results on one sequence are retold here after article PMC3688528, “Location of the CD8 T Cell Epitope within the Antigenic Precursor Determines Immunogenicity and Protection against the Toxoplasma gondii Parasite” (PLoS Pathogens, 2013).

Regarding “HPGSVNEFDF [HF10, decamer peptide derived from type II GRA6 C-terminus, presented by L^d MHC I]”, the “Percentage of IFN-γ+ out of CD8+ cells after peptide restimulation” value in test [1] was 24.7% and ~25%. The “Number of tetramer+ cells / mouse (naïve peptide-specific CD8α+ T cells)” value in test [2] (spleen and lymph nodes of uninfected B10.D2 mice, peptide:L^d tetramer enrichment, mean, pooled from 3 independent experiments) is reported as 400 cells / mouse. Besides, in test [2] (setting [4]), the “Frequency of naïve HF10-specific CD8 T cells, fold lower than IF9-specific” value is listed as ~3 fold and the “Frequency of naïve HF10-specific CD8 T cells, fold lower than SM9-specific” value was “around 10 fold”. The “Frequency of peptide-specific CD8 T cells in the spleen (peptide-loaded L^d dimers)” value in test [3] came to 9.5%+/−3.7. Besides, in the test with type II parasite, the “Protection against lethal parasite challenge (in words)” value is given as “protects against lethal type II parasite challenge”. At L^d MHC I molecule (setting [5]), the “Affinity for L^d relative to SM9 (in words)” value was “fell in the same range as the T. gondii subdominant peptide SM9”; the “Affinity for L^d, fold higher than that of IF9, QL9 and YL9” value is given as ~10 fold. Moreover, the “Peptide concentration stabilizing L^d surface expression, fold lower compared to HY10” value at L^d MHC I molecule (RMA-S.L^d cells pulsed with serial peptide dilutions, 1 h RT and 3 h 37°C, 30-5-7 antibody, representative of 2 assays) turned out to be 1000 fold.
